Reference: patent US20070191459A1, “Use of Benzo-Heteroaryl Sulfamide Derivatives for Lowering Lipids and Lowering Blood Glucose Levels” (priority 2006, published 2007)

System: db/db mice
Assay: Diabetic db/db Mouse In Vivo Assay
Settings: female db/db mice
Text: Db/db mice are known in the art to be susceptible to Type II diabetes (Sharma K, McCue P, Dunn S R. Am J Physiol Renal Physiol. 2003 June; 284(6):F1138-44). The Db/db mice are also known in the art to be a useful model for dylipidemia.
Female db/db mice (C57BL/6J-Lep^db/db, Jackson Laboratories, Bar Harbor, Me., USA) were received at 8 weeks of age and single-housed and fed with regular chow diet. Blood was collected by tail puncture and glucose was monitored with a glucometer (OneTouch Basic, Lifescan, Newtown, Pa.).
Mice at 10 weeks of age were randomized into treatment groups based on glucose values (first criterion, average of 250 mg/dl) and body weight (second criterion, average of 37 gram). The mice were orally gavaged once daily (0.2 ml at 1500-1700 hour) with vehicle control (0.5% methylcellulose, pH7.4) and vehicle containing test compound (300 mg/kg). On day 11, the mice were fasted for 4 hr during light cycle (food was removed 0600-1000 hour) and blood glucose levels were measured through tail puncture with a glucometer at 1000 hour. The mice were then anaesthetized with sodium pentobarbital (1 ml/kg, i.p, Sleepaway, Fort Dodge, Iowa) and blood was drawn via cardiac puncture and collected into heparinized tubes.
White adipose tissue (WAT) (retroperitoneal fat) and skeletal muscle (gastrocnemius and soleus muscle) were dissected and weighed. Plasma samples were obtained by centrifuge at 2,000 g for 15 minutes at 4° C. and subjected to measurement of insulin, HDL cholesterol and triglyceride.
Data shown below are expressed as the mean and standard error calculated using 9-10 mice per treatment group. The 2 tailed Student's t-Tests were used for statistic analysis. All animal studies complied with the guideline of the Institutional Animal Care and Use Committee.

[1] = 300 mg/kg oral gavage once daily, day 11, plasma, mean ± standard error
[2] = 300 mg/kg oral once daily, in words

Compound: NS(=O)(=O)NCc1csc2ccccc12 [Compound #1, N-(benzo[b]thien-3-ylmethyl)-sulfamide]
- Blood Glucose (300 mg/kg oral gavage once daily, day 11, 4 hr fasted, mean ± standard error, 9-10 mice): 350 ± 19 mg/dL
- HDL Cholesterol [1]: 52.6 ± 1.8 mg/dL
- Triglycerides [1]: 149.2 ± 15.8 mg/dL
- Insulin levels (300 mg/kg oral gavage once daily, day 11, plasma, vehicle 11.9±2.2): 14.6±3.0
- Skeletal Muscle Weight (300 mg/kg oral gavage once daily, day 11, gastrocnemius and soleus muscle, mean ± standard error): 0.155 ± 0.004 g
- Retroperitoneal Fat Weight (300 mg/kg oral gavage once daily, day 11, mean ± standard error): 1.29 ± 0.09 g
- blood glucose levels as compared to vehicle treated mice [2]: significantly lower
- blood triglyceride levels as compared to vehicle treated mice [2]: decreased
- plasma HDL cholesterol levels as compared to vehicle treated mice [2]: significantly increased
- skeletal muscle mass versus vehicle [2]: increased skeletal muscle mass
- fat to lean mass ratio (300 mg/kg oral once daily, versus vehicle, in words): significant decrease
